According to the supplement of paper PMC10331698:
± gives the standard deviation of the averaged measurements.

What was measured:
Assay in all cases: level (log10 ratio to DMSO vehicle control); higher = higher biomarker level / cell amount than vehicle control
Settings in all cases: in DMSO
Hexafluoroglutaric acid = compound: O=C(O)C(F)(F)C(F)(F)C(F)(F)C(=O)O [Hexafluoroglutaric acid]
Method: (§1)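 BioMAP Diversity Plus panel of 12 human primary cell co-culture systems (3C, 4H, LPS, SAg, BT, BF4T, BE3C, CASM3C, HDF3CGF, KF3CT, MyoF, Mphg). Compounds were added 1 h before stimulation and left for 24 h (MyoF 48 h; BT 72 h for soluble read-outs or 6 d for IgG). Biomarkers were read by ELISA, cytotoxicity by SRB, PBMC viability and proliferation by Alamar Blue. Each well value was divided by the mean of 8 DMSO control wells on the same plate and log10 transformed; duplicate blinded samples were tested at 4 concentrations.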

[1] = compound: CC(C)(C)C(=O)CC(=O)C(F)(F)C(F)(F)C(F)(F)F [(Heptafluorobutanoyl)pivaloylmethane]
Method: as §1

Perfluorooctanamide = compound: NC(=O)C(F)(F)C(F)(F)C(F)(F)C(F)(F)C(F)(F)C(F)(F)C(F)(F)F [Perfluorooctanamide]
Method: as §1

1-(Perfluorohexyl)octane = compound: CCCCCCCCC(F)(F)C(F)(F)C(F)(F)C(F)(F)C(F)(F)C(F)(F)F [1-(Perfluorohexyl)octane]
Method: as §1

[2] = compound: CNS(=O)(=O)C(F)(F)C(F)(F)C(F)(F)C(F)(F)C(F)(F)C(F)(F)C(F)(F)C(F)(F)F [N-Methylperfluorooctanesulfonamide]
Method: as §1

[3] = compound: O=C(O)CCC(F)(F)C(F)(F)C(F)(F)C(F)(F)C(F)(F)F [2H,2H,3H,3H-Perfluorooctanoic acid]
Method: as §1

Perfluorooctanamidine = compound: N=C(N)C(F)(F)C(F)(F)C(F)(F)C(F)(F)C(F)(F)C(F)(F)C(F)(F)F [Perfluorooctanamidine]
Method: as §1

| Test System | level (log10) (Hexafluoroglutaric acid; 6700 nM) | level (log10) (Hexafluoroglutaric acid; 20000 nM) | level (log10) (Hexafluoroglutaric acid; 60000 nM) | level (log10) ([1]; 6700 nM) | level (log10) ([1]; 20000 nM) | level (log10) ([1]; 60000 nM) | level (log10) (Perfluorooctanamide; 6700 nM) | level (log10) (Perfluorooctanamide; 20000 nM) | level (log10) (Perfluorooctanamide; 60000 nM) | level (log10) (1-(Perfluorohexyl)octane; 6700 nM) | level (log10) (1-(Perfluorohexyl)octane; 20000 nM) | level (log10) ([2]; 6700 nM) | level (log10) ([2]; 20000 nM) | level (log10) ([2]; 60000 nM) | level (log10) ([3]; 6700 nM) | level (log10) ([3]; 20000 nM) | level (log10) ([3]; 60000 nM) | level (log10) (Perfluorooctanamidine; 6700 nM) | level (log10) (Perfluorooctanamidine; 20000 nM) | level (log10) (Perfluorooctanamidine; 60000 nM) |
| --- | --- | --- | --- | --- | --- | --- | --- | --- | --- | --- | --- | --- | --- | --- | --- | --- | --- | --- | --- | --- |
| 3C:CD87/uPAR | -0.0075 ± 0.018 | -0.0105 ± 0.028 | 0.0025 ± 0.013 | -0.0255 ± 0.056 | -0.0435 ± 0.026 | -0.0255 ± 0.033 | 0.0075 ± 0.011 | 0.004 ± 0.0099 | 0.0045 ± 0.0092 | -0.0145 ± 0.013 | -0.0075 ± 0.019 | -0.0125 ± 0.059 | -0.052 ± 0.011 | -0.0055 ± 0.032 | -0.0155 ± 0.043 | -0.0055 ± 0.016 | -0.021 ± 0.023 | 0.0265 ± 0.059 | 0.0135 ± 0.028 | 0.042 |
| 3C:CXCL8/IL-8 | -0.033 ± 0.0057 | -0.0185 ± 0.018 | 0.0015 ± 0.044 | -0.015 ± 0.011 | -0.007 ± 0.045 | 0.016 ± 0.079 | -0.013 ± 0.0042 | 0.002 ± 0.031 | 0.047 ± 0.021 | -0.005 ± 0.0028 | 0.0005 ± 0.019 | -0.0035 ± 0.0078 | 0.0575 ± 0.012 | 0.064 ± 0.0028 | -0.032 ± 0.075 | 0.005 ± 0.0042 | 0.0265 ± 0.0092 | 0.018 ± 0.011 | 0.022 ± 0.0085 | 0.08 |
| 3C:CXCL9/MIG | -0.014 ± 0.0085 | -0.005 ± 0.0042 | -0.0075 ± 0.0035 | -0.007 ± 0.016 | -0.0045 ± 0.013 | 0.004 ± 0.0071 | 0.01 ± 0.0042 | 0.008 ± 0.014 | 0.031 ± 0.0014 | 0.009 ± 0.023 | 0.017 ± 0.016 | 0.001 ± 0.0014 | -0.0075 ± 0.011 | 0.022 ± 0.0057 | -0.006 ± 0.013 | -0.007 ± 0.027 | -0.0075 ± 0.021 | 0.007 ± 0.0071 | -0.0165 ± 0.0035 | 0.005 |
| 3C:HLA-DR | 0.0225 ± 0.035 | 0.0315 ± 0.047 | 0.038 ± 0.042 | -0.0205 ± 0.013 | -0.0285 ± 0.005 | -0.092 ± 0.035 | 0.001 ± 0.034 | 0.002 ± 0.017 | 0.0095 ± 0.019 | 0.028 ± 0.03 | 0.0205 ± 0.019 | -0.0605 ± 0.012 | -0.102 ± 0.016 | -0.072 ± 0.028 | -0.0085 ± 0.00071 | -0.019 ± 0.023 | -0.001 ± 0.0071 | 0.0025 ± 0.016 | -0.0295 ± 0.0064 | -0.035 |
| 3C:Proliferation | -0.0055 ± 0.0064 | -0.009 ± 0.068 | -0.0155 ± 0.054 | -0.0155 ± 0.054 | -0.044 ± 0.033 | -0.379 ± 0.24 | 0.0165 ± 0.0021 | 0 ± 0.014 | -0.081 ± 0.0085 | -0.0125 ± 0.06 | -0.0035 ± 0.012 | -0.024 ± 0.02 | -0.125 ± 0.041 | -0.338 ± 0.16 | -0.0415 ± 0.022 | -0.038 ± 0.033 | -0.007 ± 0.0014 | -0.0395 ± 0.018 | -0.054 ± 0.028 | -0.194 |
| 3C:SRB | -0.004 ± 0.0014 | -0.005 ± 0.014 | 0.0075 ± 0.028 | -0.001 ± 0.0057 | -0.003 ± 0.0071 | -0.061 ± 0.075 | 0.007 ± 0.013 | 0.0095 ± 0.005 | -0.015 ± 0.0099 | 0.004 ± 0.021 | -0.005 ± 0.018 | 0.0145 ± 0.022 | -0.031 ± 0.0028 | -0.0675 ± 0.028 | -0.002 | -0.0085 ± 0.0078 | -0.009 ± 0.0085 | 0.008 ± 0.016 | 0.0195 ± 0.019 | -0.054 |
| 4H:CCL2/MCP-1 | -0.0095 ± 0.032 | -0.0135 ± 0.011 | 0.0245 ± 0.047 | -0.0085 ± 0.012 | -0.006 ± 0.018 | -0.0195 ± 0.059 | -0.016 ± 0.0028 | -0.005 ± 0.0014 | -0.008 | -0.0525 ± 0.019 | -0.0495 ± 0.021 | 0.002 ± 0.017 | -0.064 ± 0.017 | -0.103 ± 0.027 | 0.009 ± 0.0042 | -0.008 ± 0.0057 | 0.0025 ± 0.0064 | 0.0095 ± 0.011 | -0.0055 ± 0.0064 | 0.061 |
| 4H:CCL26/Eotaxin-3 | 0.0155 ± 0.035 | 0.0155 ± 0.013 | 0.0235 ± 0.0078 | -0.002 ± 0.0014 | 0.004 ± 0.0057 | 0.0145 ± 0.016 | 0.033 ± 0.055 | 0.021 ± 0.031 | 0.0275 ± 0.04 | -0.0025 ± 0.0021 | 0.004 ± 0.021 | -0.0005 ± 0.018 | -0.0415 ± 0.032 | -0.0675 ± 0.025 | 0.032 ± 0.017 | 0.0095 ± 0.016 | 0.0125 ± 0.015 | -0.006 ± 0.0042 | -0.033 ± 0.0042 | -0.118 |
| 4H:CD62P/P-selectin | 0.0065 ± 0.0035 | -0.035 ± 0.0014 | -0.05 ± 0.064 | -0.045 ± 0.089 | -0.032 ± 0.078 | -0.076 ± 0.16 | -0.0005 ± 0.0078 | -0.0225 ± 0.022 | -0.02 ± 0.024 | 0.0245 ± 0.039 | -0.007 ± 0.016 | 0.0265 ± 0.011 | -0.0345 ± 0.011 | -0.0685 ± 0.0092 | 0.005 ± 0.048 | -0.041 ± 0.073 | 0.002 ± 0.034 | -0.0165 ± 0.012 | -0.007 ± 0.0085 | -0.032 |
| 4H:CD87/uPAR | -0.046 ± 0.023 | -0.027 ± 0.057 | -0.005 ± 0.031 | -0.005 ± 0.057 | -0.0135 ± 0.036 | 0.016 ± 0.12 | -0.0055 ± 0.037 | 0.0105 ± 0.021 | -0.0285 ± 0.012 | 0.027 ± 0.027 | 0.0155 ± 0.015 | -0.012 ± 0.12 | -0.0565 ± 0.071 | -0.046 ± 0.044 | -0.008 ± 0.04 | -0.0065 ± 0.03 | -0.062 ± 0.037 | 0.0455 ± 0.097 | 0.055 ± 0.028 | 0.146 |
| 4H:CD106/VCAM-1 | -0.005 ± 0.014 | -0.005 ± 0.03 | -0.0045 ± 0.012 | -0.0175 ± 0.019 | 0.021 ± 0.045 | -0.032 ± 0.03 | -0.023 | -0.0235 ± 0.0035 | -0.01 ± 0.03 | 0.011 ± 0.04 | -0.005 | 0 ± 0.0014 | 0.015 ± 0.0042 | -0.0435 ± 0.032 | -0.0135 ± 0.0092 | -0.0325 ± 0.026 | -0.0405 ± 0.029 | 0.0015 ± 0.011 | -0.028 ± 0.016 | -0.132 |
| 4H:SRB | -0.0005 ± 0.0092 | 0.003 ± 0.016 | 0.011 ± 0.034 | -0.007 ± 0.0014 | -0.005 ± 0.0071 | -0.0095 ± 0.016 | -0.0005 ± 0.005 | -0.008 ± 0.0057 | 0.0085 ± 0.028 | 0.0035 ± 0.019 | -0.002 ± 0.0042 | -0.0045 ± 0.0092 | -0.041 ± 0.0014 | -0.0635 ± 0.054 | -0.004 ± 0.0099 | -0.0115 ± 0.016 | -0.001 ± 0.014 | 0.0035 ± 0.0021 | -0.006 ± 0.0071 | -0.029 |
| 4H:VEGFR2 | 0.0005 ± 0.016 | -0.04 ± 0.0099 | -0.0095 ± 0.0078 | 0 ± 0.011 | -0.012 ± 0.0071 | -0.0105 ± 0.032 | -0.025 ± 0.0099 | -0.0405 ± 0.037 | -0.021 ± 0.025 | 0.0045 ± 0.022 | 0.0245 ± 0.0021 | -0.0425 ± 0.032 | -0.096 ± 0.0085 | -0.0995 ± 0.00071 | 0.008 ± 0.011 | 0.02 ± 0.017 | 0.0155 ± 0.03 | -0.0135 ± 0.023 | -0.023 ± 0.025 | 0.064 |
| BE3C:CD54/ICAM-1 | 0.018 ± 0.0042 | 0.0095 ± 0.018 | 0.009 ± 0.02 | -0.0055 ± 0.005 | -0.008 ± 0.0014 | -0.0185 ± 0.011 | -0.012 ± 0.0042 | -0.0075 ± 0.012 | -0.022 ± 0.033 | 0.0045 ± 0.011 | -0.0025 ± 0.0021 | 0.0055 ± 0.0021 | 0.0255 ± 0.0021 | 0.016 ± 0.0071 | -0.0065 ± 0.0078 | -0.0085 ± 0.005 | -0.0155 ± 0.011 | -0.017 ± 0.0028 | -0.019 ± 0.0057 | 0.027 |
